Data: patent US12286488B2, “Anti-dinitolmide monoclonal antibodies and hybridoma cell strain that secretes them” (JIANGNAN UNIVERSITY, priority 2020, dated 2025)
≈ marks a conversion by molar mass, not a printed value.

System: anti-dinitolmide monoclonal antibody secreted by hybridoma cell strain DAS3H10
Assay: indirect competitive ELISA (IC50 and cross-reaction rates)
Type: binding, mouse
Conditions: for IC50: dinitolmide monoclonal antibody; for cross-reaction rates: relative to dinitolmide
Text: The basic steps for the preparation of the DAS3H10 cell line provided by the invention are: • (1) Preparation and identification of immunogen: 3,5-dinitro-2-methylbenzoic acid, which is a structure analogue of dinitolmide, was used as a raw material and connected to the amino group of the protein carrier with the activated ester method. After the reaction was completed, the complete immunogen and the unconnected small molecule hapten were separated by dialysis. And the complete immunogen was identified by UV-VIS absorption spectrometry. • (2) Immunization of mice: BALB/c mice aged 6-8 weeks were selected for immunization. The immunogen, which was emulsified with […], was injected to the BALB/c mice by subcutaneous injection at multiple points. The Faust complete adjuvant was used for the first immunization, the Faust incomplete adjuvant was used for the booster immunization, and the commixture of the immunogen and normal saline was used for the sprint immunization by intraperitoneal injection. Each immunization dose was half of the previous immunization dose, and the interval between each immunization was three weeks. After the third immunization, blood collection was collected every one week for the detection of serum titer and inhibition. • (3) Cell fusion and cell line establishment: the cell fusion of mouse spleen cells and mouse myeloma cells was accomplished by polyethylene glycol (PEG 2000). After cultured culturing in HAT medium, there was detection of positive cells wells by indirect ELISA, and further detection of the inhibition effect of positive cell wells by indirect competition ELISA. Positive cell wells with the best inhibition effect were subcloned three times by limiting dilution assay, and finally the hybridoma cell strain DAS3H10 was finally screened. • (4) Identification of the properties of hybridoma cell strains: the identification of hybridoma cell strains were determined by HRP, and IC50, cross-reaction rates and affinity were determined by ELISA.
4. Cell screening and cell line establishment: during the cell fusion, half of the RPMI-1640 screening medium of the fusion cell was changed on the 3rd day, and all was replaced by the RPMI-1640 screening medium with 20% fetal bovine serum, 1% of 100×HT on the fifth day. The cell supernatant was used for screening on the 7th day, which is divided into two steps: the first step is to screen out the positive cell wells with indirect ELISA, the second step is to detect the inhibition effect of positive cell wells by indirect competition ELISA with dinitolmide used as the standard substance. The cell wells with good inhibition effect of dinitrotolamine were selected to be subcloned with finite dilution assay, and the inhibition effect was detected in the same way. This process was repeated three times to obtain the cell line.
6. […] Each sample was added to 3 wells. […]

Compound | IC50 | cross-reaction rates
N#CC(c1ccc(Cl)cc1)c1c(Cl)cc(-n2ncc(=O)[nH]c2=O)cc1Cl (centres unmarked) [dikjuli] | >0.5 µg/mL | <5%
Cc1c(C(N)=O)cc([N+](=O)[O-])cc1[N+](=O)[O-] [dinitolmide] | 0.00901 µg/mL (≈ 0.04 µM) | 100%
Cc1cc(-n2c(=O)[nH]c(=O)n(C)c2=O)ccc1Oc1ccc(SC(F)(F)F)cc1 [torquoly] | >0.5 µg/mL | <5%
nicarbazine | >0.5 µg/mL | <5%
